The results in this text go back to the supplement of paper PMC11208160.

This data set in a line: recombinant barcode read abundance after kanamycin selection (control-corrected) (log10(CPM+1)); higher = more efficient recombination; sequences stand for … in AGTGCAGAGAAAATCGGCCAGTTTTCTCTGCCTGCAGTCCGCATGCCGT…AGATTTATGCAGCGGACTGCCTTTCTCCCAAAGTGATAAACCGGACAGTATCATGGACCGGTTTTCCCGGTAATCCGTATTTGCAAGGTTGGTTTCACT; site = the 11-nt target. Summed up:
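Each value is log10(CPM+1). It describes recombination efficiency, taken as averaged, control-corrected counts per million of barcodes at recombinant junctions. The pooled E. coli library paired targets with IS621 bridge RNA target-binding loops, was co-electroporated with a donor plasmid, and was plated twice on chloramphenicol/ampicillin LB agar (control) and twice on chloramphenicol/ampicillin/kanamycin containing 0.1 mM IPTG.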
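Note: IS621 recombinase and bridge RNA in Escherichia coli cells.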

As for “TCCAGCTCTTGGGTTCTAACCTGTTGCCT (site ACCAGATCTAG)”, the “recombinant barcode read abundance (log10)” value came to 0.0273.

Take “TCCAGCTCTTGGGTTCTAACCTGTTGCCT (site TCCAGCTCTAG)”: the “recombinant barcode read abundance (log10)” value was 0.631.

Regarding “TCCAGGGCTTGGGTTCTAACCTGTTGCCT (site TCCAGGGCTAG)”, the “recombinant barcode read abundance (log10)” value was 0.185.

Regarding “TCCAGGGCTTGGGTTCTAACCTGTTGCCT (site TCCTGGCCTAG)”, the “recombinant barcode read abundance (log10)” value turned out to be 0.0786.

With “TCCAGTACTTGGGTTCTAACCTGTTGCAT (site TCCAGTACTAT)”, the “recombinant barcode read abundance (log10)” value is 0.351.

“TCCAGTACTTGGGTTCTAACCTGTTGCAT (site TCCCGTACTAT)”: the “recombinant barcode read abundance (log10)” value came out at 0.0322.

For the sequence “TCCAGTACTTGGGTTCTAACCTGTTGCAT (site TCCGGTACTAT)”, the “recombinant barcode read abundance (log10)” value is 0.564.

“TCCAGTACTTGGGTTCTAACCTGTTGCAT (site TCCTGTACTAT)”: the “recombinant barcode read abundance (log10)” value is 0.105.

Turning to “TCCCATACTTGGGTTCTAACCTGTTGCGA (site CTTGGGTCTAT)”, the “recombinant barcode read abundance (log10)” value was determined as 0.0603.

With “TCCCATACTTGGGTTCTAACCTGTTGCGA (site TCCCATACTTC)”, the “recombinant barcode read abundance (log10)” value was determined as 1.57.

Take “TCCCATCCTTGGGTTCTAACCTGTTGCCT (site TCCCATACTAG)”: the “recombinant barcode read abundance (log10)” value turned out to be 0.0689.

On to “TCCCATCCTTGGGTTCTAACCTGTTGCCT (site TCCCATCCTAG)”, for which the “recombinant barcode read abundance (log10)” value stood at 0.757.

As for “TCCCATCCTTGGGTTCTAACCTGTTGCCT (site TCCCATGCTAG)”, the “recombinant barcode read abundance (log10)” value amounted to 0.0237.

As to “TCCCATCCTTGGGTTCTAACCTGTTGCCT (site TCCCATTCTAG)”, the “recombinant barcode read abundance (log10)” value came to 0.592.

On to “TCCCATCCTTGGGTTCTAACCTGTTGCGT (site TCCCATCCTAC)”, for which the “recombinant barcode read abundance (log10)” value came out at 2.38.

For “TCCCATCCTTGGGTTCTAACCTGTTGCGT (site TCCTATCCTAC)”, the “recombinant barcode read abundance (log10)” value is 0.0583.

Take “TCCCGTACTTGGGTTCTAACCTGTTGCAT (site TCCAGTACTAT)”: the “recombinant barcode read abundance (log10)” value is 0.382.

On to “TCCCGTACTTGGGTTCTAACCTGTTGCAT (site TCCCGTACTAT)”, for which the “recombinant barcode read abundance (log10)” value came to 0.43.

On to “TCCCGTACTTGGGTTCTAACCTGTTGCAT (site TCCGGTACTAT)”, for which the “recombinant barcode read abundance (log10)” value came out at 0.0638.

Turning to “TCCCGTACTTGGGTTCTAACCTGTTGCAT (site TCCTGTACTAT)”, the “recombinant barcode read abundance (log10)” value stood at 0.159.

As for “TCCCTATCTTGGGTTCTAACCTGTTGCCT (site TACCTATCTAG)”, the “recombinant barcode read abundance (log10)” value was 0.223.

In the case of “TCCCTATCTTGGGTTCTAACCTGTTGCCT (site TCCCTATCTAG)”, the “recombinant barcode read abundance (log10)” value was 0.758.

Take “TCCCTATCTTGGGTTCTAACCTGTTGCCT (site TGCCTATCTAG)”: the “recombinant barcode read abundance (log10)” value is 0.0386.

For the sequence “TCCCTATCTTGGGTTCTAACCTGTTGCCT (site TTCCTATCTAG)”, the “recombinant barcode read abundance (log10)” value turned out to be 0.0651.

Take “TCCGACCCTTGGGTTCTAACCTGTTGCAC (site TCCGACCCTGT)”: the “recombinant barcode read abundance (log10)” value worked out at 2.54.

For the sequence “TCCGACCCTTGGGTTCTAACCTGTTGCAC (site TCCGTCCCTAT)”, the “recombinant barcode read abundance (log10)” value was determined as 0.0486.

As to “TCCGAGACTTGGGTTCTAACCTGTTGCCG (site TCCGAGACTAG)”, the “recombinant barcode read abundance (log10)” value is 0.541.

Consider “TCCGAGACTTGGGTTCTAACCTGTTGCCG (site TCCGAGACTCG)”, for which the “recombinant barcode read abundance (log10)” value amounted to 1.93.

As for “TCCGAGACTTGGGTTCTAACCTGTTGCCG (site TCCGAGACTGG)”, the “recombinant barcode read abundance (log10)” value was determined as 0.0458.

Consider “TCCGAGACTTGGGTTCTAACCTGTTGCCG (site TCCGAGACTTG)”, for which the “recombinant barcode read abundance (log10)” value was 0.0796.

“TCCGATTCTTGGGTTCTAACCTGTTGCGT (site GCCTATTCTAC)”: the “recombinant barcode read abundance (log10)” value came to 0.19.

With “TCCGATTCTTGGGTTCTAACCTGTTGCGT (site TCCGATTCTAC)”, the “recombinant barcode read abundance (log10)” value was determined as 1.7.

Take “TCCGCTACTTGGGTTCTAACCTGTTGCCT (site TCCGCTACTAG)”: the “recombinant barcode read abundance (log10)” value stood at 0.0438.

Take “TCCGCTACTTGGGTTCTAACCTGTTGCCT (site TCCGCTCCTAG)”: the “recombinant barcode read abundance (log10)” value came out at 0.0689.

On to “TCCGCTACTTGGGTTCTAACCTGTTGCCT (site TCCGCTGCTAG)”, for which the “recombinant barcode read abundance (log10)” value was 0.0537.

Take “TCCGCTACTTGGGTTCTAACCTGTTGCCT (site TCCGCTTCTAG)”: the “recombinant barcode read abundance (log10)” value stood at 0.107.

Take “TCCGCTTCTTGGGTTCTAACCTGTTGCCT (site TCCGCTACTAG)”: the “recombinant barcode read abundance (log10)” value came out at 0.321.

For “TCCGCTTCTTGGGTTCTAACCTGTTGCCT (site TCCGCTCCTAG)”, the “recombinant barcode read abundance (log10)” value was found to be 0.259.

Regarding “TCCGCTTCTTGGGTTCTAACCTGTTGCCT (site TCCGCTGCTAG)”, the “recombinant barcode read abundance (log10)” value was 0.0858.

For “TCCGCTTCTTGGGTTCTAACCTGTTGCCT (site TCCGCTTCTAG)”, the “recombinant barcode read abundance (log10)” value was determined as 0.487.

As to “TCCGCTTCTTGGGTTCTAACCTGTTGCTT (site AATCGAGCTCC)”, the “recombinant barcode read abundance (log10)” value is 0.0408.

Turning to “TCCGCTTCTTGGGTTCTAACCTGTTGCTT (site TCCGCTTCTAA)”, the “recombinant barcode read abundance (log10)” value was determined as 0.0659.

For the sequence “TCCGGTACTTGGGTTCTAACCTGTTGCTT (site TCCAGTACTAA)”, the “recombinant barcode read abundance (log10)” value turned out to be 0.0783.

With “TCCGGTACTTGGGTTCTAACCTGTTGCTT (site TCCGGTACTAA)”, the “recombinant barcode read abundance (log10)” value was 0.438.

Take “TCCTAACCTTGGGTTCTAACCTGTTGCCT (site TCCTAACCTAG)”: the “recombinant barcode read abundance (log10)” value came out at 0.454.

Regarding “TCCTAACCTTGGGTTCTAACCTGTTGCCT (site TCCTAATCTAT)”, the “recombinant barcode read abundance (log10)” value was 0.0117.

On to “TCCTAAGCTTGGGTTCTAACCTGTTGCGG (site TCCTAAGCTCC)”, for which the “recombinant barcode read abundance (log10)” value came out at 1.67.

Turning to “TCCTAAGCTTGGGTTCTAACCTGTTGCGG (site TGCTAAGCTCA)”, the “recombinant barcode read abundance (log10)” value stood at 0.276.

Take “TCCTAAGCTTGGGTTCTAACCTGTTGCTA (site TCCAAAGCTTA)”: the “recombinant barcode read abundance (log10)” value stood at 0.05.

On to “TCCTAAGCTTGGGTTCTAACCTGTTGCTA (site TCCCAAGCTTA)”, for which the “recombinant barcode read abundance (log10)” value was determined as 0.227.

Regarding “TCCTAAGCTTGGGTTCTAACCTGTTGCTA (site TCCGAAGCTTA)”, the “recombinant barcode read abundance (log10)” value stood at 0.372.

On to “TCCTAAGCTTGGGTTCTAACCTGTTGCTA (site TCCTAAGCTTA)”, for which the “recombinant barcode read abundance (log10)” value amounted to 0.161.

For “TCCTAATCTTGGGTTCTAACCTGTTGCTT (site CGGGCTACTTG)”, the “recombinant barcode read abundance (log10)” value came out at 0.284.

In the case of “TCCTAATCTTGGGTTCTAACCTGTTGCTT (site TCCTAATCTAA)”, the “recombinant barcode read abundance (log10)” value was found to be 0.111.

Take “TCCTATCCTTGGGTTCTAACCTGTTGCGA (site GTGGGAACTAA)”: the “recombinant barcode read abundance (log10)” value is 0.0465.

“TCCTATCCTTGGGTTCTAACCTGTTGCGA (site TCCTATCCTTC)”: the “recombinant barcode read abundance (log10)” value is 0.513.

For the sequence “TCCTATGCTTGGGTTCTAACCTGTTGCCG (site GAAAGCTCTAC)”, the “recombinant barcode read abundance (log10)” value was determined as 0.0567.

As to “TCCTATGCTTGGGTTCTAACCTGTTGCCG (site TCCTATGCTCG)”, the “recombinant barcode read abundance (log10)” value is 0.444.

Consider “TCCTCGTCTTGGGTTCTAACCTGTTGCCT (site GCCTGGTCTAG)”, for which the “recombinant barcode read abundance (log10)” value is 0.00881.

On to “TCCTCGTCTTGGGTTCTAACCTGTTGCCT (site TCCTCGTCTAG)”, for which the “recombinant barcode read abundance (log10)” value worked out at 0.669.

Turning to “TCCTGTACTTGGGTTCTAACCTGTTGCCT (site TCCTGTACTAG)”, the “recombinant barcode read abundance (log10)” value was determined as 0.239.

Regarding “TCCTGTACTTGGGTTCTAACCTGTTGCCT (site TCCTGTCCTAT)”, the “recombinant barcode read abundance (log10)” value was 0.108.

Turning to “TCCTTAGCTTGGGTTCTAACCTGTTGCCG (site TCCTGAGCTCA)”, the “recombinant barcode read abundance (log10)” value stood at 0.155.

“TCCTTAGCTTGGGTTCTAACCTGTTGCCG (site TCCTTAGCTCG)”: the “recombinant barcode read abundance (log10)” value worked out at 0.0503.

As to “TCGAACCCTTGGGTTCTAACCTGTTGCGG (site TCAAACCCTCC)”, the “recombinant barcode read abundance (log10)” value came to 0.991.

Turning to “TCGAACCCTTGGGTTCTAACCTGTTGCGG (site TCCAACCCTCC)”, the “recombinant barcode read abundance (log10)” value was determined as 0.168.

“TCGAACCCTTGGGTTCTAACCTGTTGCGG (site TCGAACCCTCC)”: the “recombinant barcode read abundance (log10)” value turned out to be 0.851.

On to “TCGAACCCTTGGGTTCTAACCTGTTGCGG (site TCTAACCCTCC)”, for which the “recombinant barcode read abundance (log10)” value turned out to be 0.0521.

Turning to “TCGAAGCCTTGGGTTCTAACCTGTTGCCT (site TCGAAACCTAG)”, the “recombinant barcode read abundance (log10)” value is 0.0823.

Take “TCGAAGCCTTGGGTTCTAACCTGTTGCCT (site TCGAACCCTAG)”: the “recombinant barcode read abundance (log10)” value was found to be 0.207.

Take “TCGAAGCCTTGGGTTCTAACCTGTTGCCT (site TCGAAGCCTAG)”: the “recombinant barcode read abundance (log10)” value came out at 0.324.

For “TCGAAGCCTTGGGTTCTAACCTGTTGCCT (site TCGAATCCTAG)”, the “recombinant barcode read abundance (log10)” value was determined as 0.101.

In the case of “TCGAATTCTTGGGTTCTAACCTGTTGCCT (site TCGAATTCTAG)”, the “recombinant barcode read abundance (log10)” value worked out at 0.109.

Turning to “TCGAATTCTTGGGTTCTAACCTGTTGCCT (site TCGATGTCTAG)”, the “recombinant barcode read abundance (log10)” value was determined as 0.0943.

“TCGAGAGCTTGGGTTCTAACCTGTTGCCG (site TCGAGAGCTCG)”: the “recombinant barcode read abundance (log10)” value is 0.441.

Regarding “TCGAGAGCTTGGGTTCTAACCTGTTGCCG (site TCGAGAGCTTA)”, the “recombinant barcode read abundance (log10)” value was 0.203.

As for “TCGAGTCCTTGGGTTCTAACCTGTTGCCT (site TCGAGTACTAG)”, the “recombinant barcode read abundance (log10)” value was 0.766.
